A short description of assay [1]: inhibitors of HIV Env-driven cell fusion, dose response, cherry-pick (AID 652057). In kind it is functional, cell-based.
Assay [2] can be described thus: inhibitors of clade B AD8 Env fusion, dose response, cell-based, cherry-pick (AID 652062).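 Further: luciferase signal from cell-cell fusion driven by HIV-1 clade B AD8 Env; potency is for inhibitors of fusion seen as a drop in luminescence.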 Type of assay: functional.
Assay [3] has as its target Endoplasmic reticulum aminopeptidase 1 (Homo sapiens, UniProt Q9NZ08). Description: ERAP1 aminopeptidase inhibitors, dose response, biochemical, cherry-pick, set 2, plate reader (AID 743314).
Assay [4] is described as follows: off-target signal loss in HeLa-CEM21 co-culture – HeLa F-luc CTL cells, cherry-picked, counter-screen for HIV-1 Env fusion inhibitor project, dose response (AID 652040).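 Further: potency for signal decrease marking cytotoxic or nonspecific inhibition.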 Type of assay: functional, cell-based.
A short description of assay [5]: inhibitors of Vif binding to APOBEC3G peptide, primary screen, biochemical, TR-FRET, GST-Vif 1-94, biotin-A3G peptide, dose response retest (AID 1117319).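 Further: TR-FRET signal of purified GST-Vif binding a biotinylated A3G peptide; inhibitors lower the FRET signal by blocking Vif and A3G binding.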 In kind it is functional.
Assay [6] in a line: NIH-3T3 fibroblast cytotoxicity, dose response, cytotoxicity control, cell-based, fluorescence, Alamar Blue, secondary assay (AID 2327).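 Further: NIH-3T3 mouse fibroblasts cultured with fluconazole at 8 µg/mL.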 In kind it is functional.
The nature of assay [7]: C. albicans growth with fluconazole, confirmation, fluorescence, retest (AID 2467). Type of assay: functional, cell-based.
For assay [8], the target named is Dual specificity tyrosine-phosphorylation-regulated kinase 1A (Rattus norvegicus, UniProt Q63470). Type of assay: biochemical, Homo sapiens.
Assay [9] in a line: Vero cell cytotoxicity, dose response, cytotoxicity control for Vif-APOBEC3G degradation inhibitor project, Vero cells (AID 1117358). In kind it is functional. As to conditions: Human immunodeficiency virus 1, Vero.
Assay [10] is described as follows: intracellular Trypanosoma cruzi inhibitors in host cells – cell-based, plate reader, cherry-pick samples, set 3, dose response (AID 651818).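 Further: compounds incubated with infected cells for about four days.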 Type of assay: functional.
Assay [11] in a line: growth suppression of PTEN-null colon cells, dose response, cell-based, HCT116 PTEN knockout (AID 1047).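 Further: HCT116 colon tumor cells with PTEN knocked out; cells exposed to compound for 60 hours before readout; potency for loss of cell viability measured by luminescence.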 In kind it is functional.
Assay [12] in a line: growth suppression of beta-catenin-knockout colon cells, dose response, cell-based, HCT116, human colon tumor (AID 1045).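 Further: HCT116 colon tumor cells with beta catenin knocked out; cells exposed to compound for 60 hours.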 In kind it is functional.
The target in assay [13] is T1, Heat shock factor protein 1 (Mus musculus, UniProt P38532).
T1 sequence (P38532 whole entry): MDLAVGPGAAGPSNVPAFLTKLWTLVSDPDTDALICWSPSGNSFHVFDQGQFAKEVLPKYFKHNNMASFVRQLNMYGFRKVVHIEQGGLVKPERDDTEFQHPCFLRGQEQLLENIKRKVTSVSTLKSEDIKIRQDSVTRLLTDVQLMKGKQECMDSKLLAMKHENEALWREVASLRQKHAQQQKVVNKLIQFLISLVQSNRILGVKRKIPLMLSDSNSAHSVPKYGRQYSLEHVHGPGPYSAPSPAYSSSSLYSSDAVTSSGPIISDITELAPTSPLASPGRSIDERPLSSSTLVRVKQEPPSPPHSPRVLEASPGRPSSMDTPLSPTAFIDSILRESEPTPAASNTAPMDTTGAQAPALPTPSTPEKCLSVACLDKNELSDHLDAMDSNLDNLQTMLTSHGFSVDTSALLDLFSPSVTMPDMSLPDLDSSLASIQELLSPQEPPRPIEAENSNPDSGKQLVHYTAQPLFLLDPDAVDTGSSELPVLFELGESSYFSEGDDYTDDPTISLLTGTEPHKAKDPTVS
The assay can be described thus: HSF1 potentiators in luciferase reporter cells, confirmation, cell-based, NIH3T3, luminescence, dose retest (AID 435004).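 Further: stress induced by proteasome inhibitor MG132 added 30 min after compound; luciferase reporter driven by HSF1 response element in NIH3T3 cells; actives raise luminescence as potentiators of the MG132 stress response.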 Type of assay: functional.

Assay [14] is described as follows: Fluorescence-based cell-based high throughput dose response assay for inhibitors of the interaction of nucleotide-binding oligomerization domain containing 2 (NOD2) and the receptor-interacting serine-threonine kinase 2 (RIPK2). To be noted: Homo sapiens. In kind it is functional.
The next assay has as its target T2, Cysteine protease ATG4B (Homo sapiens, UniProt Q9Y4P1).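 Further: Fluorescence-based dose-response confirmation assay measuring inhibition of ATG4B activity.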
T2 sequence (Q9Y4P1 whole entry): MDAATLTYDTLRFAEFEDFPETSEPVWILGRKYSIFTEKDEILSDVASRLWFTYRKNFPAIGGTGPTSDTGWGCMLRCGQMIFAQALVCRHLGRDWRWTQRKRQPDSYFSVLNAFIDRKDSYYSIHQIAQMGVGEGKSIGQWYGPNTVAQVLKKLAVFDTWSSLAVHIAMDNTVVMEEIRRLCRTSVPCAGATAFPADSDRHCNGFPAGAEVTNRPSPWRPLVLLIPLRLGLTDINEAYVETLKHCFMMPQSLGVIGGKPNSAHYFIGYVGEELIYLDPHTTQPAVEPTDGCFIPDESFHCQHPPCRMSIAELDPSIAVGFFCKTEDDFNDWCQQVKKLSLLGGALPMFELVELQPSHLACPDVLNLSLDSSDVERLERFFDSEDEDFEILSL
In kind it is functional.

Another assay addresses Phospholipase A2 (Homo sapiens, UniProt P04054). Type of assay: functional.
Assay [15] deals with T3, Long-chain-fatty-acid--AMP ligase FadD28 (Mycobacterium tuberculosis, UniProt P9WQ59).
T3 sequence (P9WQ59 whole entry): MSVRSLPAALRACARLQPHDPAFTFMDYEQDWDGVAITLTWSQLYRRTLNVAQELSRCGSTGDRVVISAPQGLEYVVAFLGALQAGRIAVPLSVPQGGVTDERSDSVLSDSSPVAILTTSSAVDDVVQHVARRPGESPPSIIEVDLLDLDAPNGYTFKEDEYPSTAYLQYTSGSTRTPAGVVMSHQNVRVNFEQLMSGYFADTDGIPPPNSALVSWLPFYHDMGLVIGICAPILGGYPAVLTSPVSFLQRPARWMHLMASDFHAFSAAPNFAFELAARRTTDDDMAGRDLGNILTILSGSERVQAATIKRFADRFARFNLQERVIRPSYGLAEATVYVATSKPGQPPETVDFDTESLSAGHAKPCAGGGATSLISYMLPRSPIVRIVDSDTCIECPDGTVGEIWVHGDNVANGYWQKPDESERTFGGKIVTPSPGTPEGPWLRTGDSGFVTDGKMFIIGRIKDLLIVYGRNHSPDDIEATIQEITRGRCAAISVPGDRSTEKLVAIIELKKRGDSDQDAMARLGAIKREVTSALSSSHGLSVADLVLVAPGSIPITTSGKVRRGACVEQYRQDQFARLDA
Description: Fluorescence polarization aasay to screen for inhibitors that compete for the binding of FadD28 to a bisubstrate Measured in Biochemical System Using Plate Reader - 2147-01_Inhibitor_Dose_CherryPick_Activity. In kind it is functional, Mycobacterium tuberculosis H37Rv.

A short description of assay [16]: Luminescence Cell-Based Dose Retest to Confirm Inhibitors of Cancer Stem Cells. [Related pubchem assays (depositor defined):AID2717, AID2721]. To be noted: Homo sapiens. In kind it is functional.
Assay [17] concerns Streptococcus sp. 'group A'. Description: growth inhibition of control SK(-) GAS strain, dose response, counter-screen for streptokinase expression inhibitor project, luminescence, kanamycin, BacTiterGlo, confirmation (AID 1900). In kind it is functional, organism-based.
The target in the next assay is T4, Streptokinase A (Streptococcus pyogenes serotype M1, UniProt P10520).
T4 sequence (P10520 whole entry): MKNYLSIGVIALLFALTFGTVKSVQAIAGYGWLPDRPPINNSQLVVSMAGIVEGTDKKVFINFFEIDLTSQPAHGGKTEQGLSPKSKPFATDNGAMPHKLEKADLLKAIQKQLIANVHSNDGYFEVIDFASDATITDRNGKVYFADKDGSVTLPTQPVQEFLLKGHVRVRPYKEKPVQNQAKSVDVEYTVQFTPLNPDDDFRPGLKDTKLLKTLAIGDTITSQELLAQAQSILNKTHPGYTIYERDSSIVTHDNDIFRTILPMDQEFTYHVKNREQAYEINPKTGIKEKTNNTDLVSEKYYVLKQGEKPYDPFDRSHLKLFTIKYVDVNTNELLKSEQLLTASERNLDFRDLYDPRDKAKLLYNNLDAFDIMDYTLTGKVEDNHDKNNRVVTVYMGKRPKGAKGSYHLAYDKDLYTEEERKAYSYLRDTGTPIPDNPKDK
Description: S. pyogenes streptokinase expression inhibitors, potency, dose response, plasminogen activation absorbance, OD405 (AID 1914).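 Further: secreted streptokinase activity via plasminogen activation per viability signal from cell pellet.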 In kind it is functional, Streptococcus pyogenes M1 GAS.

The nature of assay [18]: inhibitors of intracellular T. cruzi replication, confirmation, NIH3T3 host cells, beta-gal luminescence (AID 2044).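 Further: intracellular parasites grown in NIH/3T3 mouse fibroblasts as host cells; luminescent beta-galactosidase reporter signal from transgenic T. cruzi replicating inside host cells; inhibitors lower the luminescence signal.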 In kind it is functional, cell-based.
Assay [19] is described as follows: cytotoxicity toward NIH3T3 fibroblasts, dose response, counter-screen, cell-based, ATP luminescence, mouse fibroblasts (AID 2010).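 Further: cells exposed to compound for about 90 hours before reading.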 In kind it is functional.
Another assay has as its system Streptococcus. Description: Group A Streptococcus viability loss, dose response, counter-screen for streptokinase expression inhibitor project, luminescence, BacTiterGlo (AID 1915).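 Further: potency for reduction of bacterial viability or growth.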 Type of assay: functional, organism-based.
Assay [20] deals with Disintegrin and metalloproteinase domain-containing protein 17 (Homo sapiens, UniProt P78536). The assay can be described thus: ADAM17 protease inhibitors, dose response, counter-screen for ADAM10 exosite inhibitor project, biochemical, quenched FRET substrate (AID 743253).
Disintegrin and metalloproteinase domain-containing protein 17, sequence (P78536 whole entry, the tested form may be a part): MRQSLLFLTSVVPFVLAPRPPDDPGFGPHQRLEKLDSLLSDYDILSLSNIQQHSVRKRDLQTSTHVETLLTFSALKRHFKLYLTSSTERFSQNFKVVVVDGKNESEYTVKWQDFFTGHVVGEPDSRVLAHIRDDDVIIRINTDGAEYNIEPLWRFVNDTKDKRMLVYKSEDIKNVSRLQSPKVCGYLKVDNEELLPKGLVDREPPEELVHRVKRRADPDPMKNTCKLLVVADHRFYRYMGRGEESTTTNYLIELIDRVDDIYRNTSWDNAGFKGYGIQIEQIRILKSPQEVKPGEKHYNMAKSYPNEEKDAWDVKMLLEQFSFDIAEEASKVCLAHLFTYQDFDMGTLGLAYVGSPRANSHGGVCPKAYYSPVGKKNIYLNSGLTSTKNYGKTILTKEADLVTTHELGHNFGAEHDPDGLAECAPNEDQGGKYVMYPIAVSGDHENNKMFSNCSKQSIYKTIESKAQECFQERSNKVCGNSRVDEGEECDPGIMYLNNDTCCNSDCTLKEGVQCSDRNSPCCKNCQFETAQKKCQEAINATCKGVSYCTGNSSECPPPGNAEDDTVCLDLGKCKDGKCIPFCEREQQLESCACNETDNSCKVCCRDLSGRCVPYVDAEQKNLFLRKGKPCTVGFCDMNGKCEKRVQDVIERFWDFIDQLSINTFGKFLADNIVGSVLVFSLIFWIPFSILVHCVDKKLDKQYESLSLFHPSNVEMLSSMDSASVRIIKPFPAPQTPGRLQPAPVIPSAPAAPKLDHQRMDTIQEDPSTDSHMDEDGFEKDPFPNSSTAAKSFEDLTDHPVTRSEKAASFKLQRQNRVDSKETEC

Structures are written as SMILES. Activity calls are given as the source filed them.

Endoplasmic reticulum aminopeptidase 1, sequence (Q9NZ08 whole entry, the tested form may be a part): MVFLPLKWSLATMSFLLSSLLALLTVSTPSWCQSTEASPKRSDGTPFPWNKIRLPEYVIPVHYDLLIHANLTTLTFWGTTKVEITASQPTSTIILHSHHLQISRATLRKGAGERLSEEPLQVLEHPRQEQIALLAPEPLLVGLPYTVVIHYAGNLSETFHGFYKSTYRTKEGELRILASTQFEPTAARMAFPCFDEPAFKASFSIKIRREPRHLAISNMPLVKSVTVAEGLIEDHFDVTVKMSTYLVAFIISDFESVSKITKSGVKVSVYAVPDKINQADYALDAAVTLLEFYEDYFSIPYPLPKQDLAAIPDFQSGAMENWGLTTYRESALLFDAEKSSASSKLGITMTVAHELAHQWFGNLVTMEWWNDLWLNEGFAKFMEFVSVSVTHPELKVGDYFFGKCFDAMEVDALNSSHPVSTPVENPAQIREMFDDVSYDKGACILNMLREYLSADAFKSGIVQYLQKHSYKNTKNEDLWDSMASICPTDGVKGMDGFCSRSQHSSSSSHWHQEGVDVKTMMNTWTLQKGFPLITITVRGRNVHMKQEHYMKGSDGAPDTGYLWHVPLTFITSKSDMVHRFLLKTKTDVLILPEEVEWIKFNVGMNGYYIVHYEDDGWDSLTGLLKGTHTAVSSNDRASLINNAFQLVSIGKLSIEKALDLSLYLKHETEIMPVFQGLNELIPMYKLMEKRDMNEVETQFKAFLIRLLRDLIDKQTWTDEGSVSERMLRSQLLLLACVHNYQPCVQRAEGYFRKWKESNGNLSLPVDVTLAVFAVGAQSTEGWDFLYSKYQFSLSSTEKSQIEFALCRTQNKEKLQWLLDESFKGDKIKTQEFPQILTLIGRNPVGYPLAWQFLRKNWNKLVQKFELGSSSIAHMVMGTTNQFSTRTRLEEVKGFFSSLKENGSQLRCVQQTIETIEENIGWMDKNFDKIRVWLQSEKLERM
Phospholipase A2, sequence (P04054 whole entry): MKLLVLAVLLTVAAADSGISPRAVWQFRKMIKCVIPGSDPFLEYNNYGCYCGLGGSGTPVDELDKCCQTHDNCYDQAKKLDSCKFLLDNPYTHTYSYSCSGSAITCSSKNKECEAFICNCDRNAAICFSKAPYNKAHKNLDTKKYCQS

In the case of `Cc1noc(C)c1S(=O)(=O)N(C)C[C@@H]1Oc2ccc(NC(=O)Cc3ccccc3)cc2CC(=O)N([C@H](C)CO)C[C@@H]1C`, the AC50 in assay [1] is < 0.26 µM (active); in assay [2] it was 2.92 µM (active).

Consider `O=C(NCc1ccccc1)[C@@H]1[C@@H](CO)[C@@H]2Cn3c(ccc(/C=C/c4ccccc4)c3=O)[C@H]1N2CC1CC1`, for which the AC50 in [3] was 11.1 µM (active).

For the compound `O=C1c2cccc(OCc3ccc(F)cc3)c2CCN1Cc1ccccc1`, the results for the AC50 in assay [4] and in [2] were 4.11 µM (active) and 10.1 µM (active), respectively.

Regarding `CCOC(=O)N1CCC(N2C(=O)c3ccccc3C2Nc2ccccc2)CC1` (configuration not stated), the IC50 in assay [5] was > 100 µM (active).

As for `Nc1nn2c(O)cc(-c3ccccc3)nc2c1N=Nc1ccc(S(N)(=O)=O)cc1`, the EC50 in assay [6] was > 160 µM (inactive); in assay [7], > 38 µM (not active). For the same compound, the AC50 in assay [8] is 1.3 µM (active).

With `COC(=O)c1cnn2c(C)c(Cc3cccc(F)c3)c(C)nc12`, the CC50 in assay [9] is > 40 µM (active).

As for `C[C@@H]1CCCCO[C@@H](CN(C)Cc2ccc(C(=O)Nc3ccccc3N)cc2)[C@@H](C)CN([C@H](C)CO)C(=O)c2cc(NC(=O)Nc3ccc(C(F)(F)F)cc3)ccc2O1`, the AC50 in [10] was 0.554 µM (active).

As for `Cc1cc(SC#N)cc(C)c1NC(=O)CCl`, the EC50 in [11] is 19.8 µM (active); in [12], 17.4 µM (active); in [13], 5.97 µM (active). Further, the IC50 in assay [14] was 11.1 µM (inactive).

Take `C[C@@H]1CN([C@H](C)CO)C(=O)c2cccc(NC(=O)c3cnccn3)c2O[C@@H]1CN(C)Cc1ccc(C(=O)Nc2ccccc2N)cc1`: the AC50 in [10] is 3.06 µM (active).

As to `COc1ccc(CCN2C(=O)c3cccnc3C2=O)cc1OC`, in [5], the IC50 was > 100 µM (active).

On to `CCN1[C@@H]2c3ccc(/C=C/c4ccccc4)c(=O)n3C[C@H]1[C@H](CO)[C@H]2C(=O)N1CCOCC1`, for which, in [3], the AC50 is 6.11 µM (active).

Regarding `C[C@H]1CN([C@@H](C)CO)C(=O)Cc2cc(NS(=O)(=O)c3ccc(Cl)cc3)ccc2O[C@H]1CN(C)CC1CCCCC1`, the AC50 in [10] is 5.05 µM (active).

On to `CN1[C@H](C(=O)NC2CCC2)[C@@H](CO)[C@@H]2Cn3c(ccc(/C=C/c4ccccc4)c3=O)[C@@H]21`, for which the AC50 in assay [3] is 18 µM (active).

In the case of `O=C(O)c1cc(Br)ccc1NN=C1CCCCC1`, the IC50 is 13.4 µM (active) on Cysteine protease ATG4B and 9.4 µM (active) at Phospholipase A2. In assay [15], the AC50 was > 100 µM (inactive).

On to `Cc1ccc(CN(C(=O)Cn2nnc3ccccc32)C(C(=O)NCc2ccco2)c2cccs2)cc1` (configuration not stated), for which the CC50 in [9] is > 40 µM (active).

As to `C[C@@H]1CN([C@@H](C)CO)C(=O)Cc2cc(NC(=O)Nc3ccc(C(F)(F)F)cc3)ccc2O[C@@H]1CN(C)S(=O)(=O)c1cccs1`, the concentration at half-maximal activity (AC50) in [10] is 3.54 µM (active).

As to `O=C(c1ccc(S(=O)(=O)N2CCOCC2)cc1)N1CCN(c2cccc(Cl)c2)CC1`, the IC50 in [5] is > 100 µM (active).

As for `O=C([C@@H]1[C@@H](CO)[C@@H]2Cn3c(ccc(/C=C/c4ccccc4)c3=O)[C@@H]2N1CC1CC1)N1CCOCC1`, the AC50 in [3] was 13.7 µM (active).

Consider `CCC(=O)Nc1ccc(C(=O)Cn2ncc(Cl)c(Cl)c2=O)cc1`, for which, in assay [16], the AC50 was 5.04 µM (active). Besides, in assay [14], the IC50 was 6.53 µM (active).

As for `N#Cc1cn(CCOc2ccccc2F)c2ccccc12`, the CC50 in [9] was > 40 µM (active).

As for `O=[N+]([O-])c1ccc(S(=O)(=O)Nc2ccc(-c3csc(-c4ccccc4)n3)cc2)cc1`, the EC50 in assay [17] is 3.77 µM (active); at Streptokinase A, > 150 µM (not active); in assay [18], 0.118 µM (active); in assay [19], > 60 µM (not active); in the assay with Streptococcus, 8.29 µM (active). Further, in assay [16], the AC50 is 2.33 µM (active). The IC50 in assay [20] was > 69.5 µM (inactive).

(Values after ChEMBL document CHEMBL1201862, “PubChem BioAssay data set” (2004).)
